Source: the NIST ThermoML archive (doi:10.1016/j.jct.2007.11.010)

Assay: xn = mol fraction of the nth substance listed
Conditions: 101 kPa, Liquid

OCCN1CCOCC1 [4-morpholineethanol] + CCC(C)O
mass density [kg/m3]
Conditions | 293.15 K | 298.15 K | 303.15 K | 313.15 K | 323.15 K
x1 = 0.0542 | 824.77 | 821.68 | 817.07 | 809.49 | 804.37
x1 = 0.1098 | 843.95 | 840.73 | 836.08 | 828.46 | 823.27
x1 = 0.1855 | 869.23 | 865.83 | 861.15 | 853.47 | 848.18
x1 = 0.2431 | 887.71 | 884.17 | 879.46 | 871.75 | 866.4
x1 = 0.2876 | 901.62 | 897.97 | 893.25 | 885.52 | 880.12
x1 = 0.3266 | 913.58 | 909.84 | 905.11 | 897.36 | 891.91
x1 = 0.3854 | 930.89 | 927.02 | 922.28 | 914.51 | 909.01
x1 = 0.4277 | 943.01 | 939.04 | 934.29 | 926.51 | 920.97
x1 = 0.4822 | 958.03 | 953.95 | 949.18 | 941.4 | 935.81
x1 = 0.5189 | 967.85 | 963.68 | 958.92 | 951.14 | 945.51
x1 = 0.5672 | 980.37 | 976.09 | 971.33 | 963.55 | 957.89
x1 = 0.6044 | 989.72 | 985.36 | 980.59 | 972.82 | 967.14
x1 = 0.6438 | 999.36 | 994.93 | 990.17 | 982.4 | 976.69
x1 = 0.6798 | 1007.93 | 1003.44 | 998.68 | 990.92 | 985.19
x1 = 0.7355 | 1020.77 | 1016.16 | 1011.41 | 1003.67 | 997.91
x1 = 0.7942 | 1033.69 | 1028.98 | 1024.24 | 1016.52 | 1010.73
x1 = 0.8427 | 1044.13 | 1039.33 | 1034.6 | 1026.9 | 1021.09
x1 = 0.8785 | 1051.72 | 1046.85 | 1042.13 | 1034.45 | 1028.62
x1 = 0.9235 | 1061.1 | 1056.15 | 1051.43 | 1043.77 | 1037.92
x1 = 0.9844 | 1073.45 | 1068.39 | 1063.69 | 1056.06 | 1050.18

OCCN1CCOCC1 [4-morpholineethanol] + CCCCO
mass density [kg/m3]
Conditions | 293.15 K | 298.15 K | 303.15 K | 313.15 K | 323.15 K
x1 = 0.0652 | 832.8 | 829 | 825.1 | 817.44 | 809.9
x1 = 0.1125 | 849.1 | 845.21 | 841.24 | 833.54 | 826.03
x1 = 0.1865 | 873.74 | 869.7 | 865.64 | 857.88 | 850.45
x1 = 0.2436 | 891.83 | 887.69 | 883.56 | 875.77 | 868.41
x1 = 0.2865 | 905.09 | 900.87 | 896.69 | 888.88 | 881.58
x1 = 0.3275 | 917.49 | 913.2 | 908.97 | 901.14 | 893.89
x1 = 0.3852 | 934.26 | 929.86 | 925.57 | 917.73 | 910.57
x1 = 0.4259 | 945.77 | 941.31 | 936.97 | 929.12 | 922.02
x1 = 0.4784 | 960.02 | 955.47 | 951.09 | 943.23 | 936.22
x1 = 0.5248 | 972.29 | 967.67 | 963.24 | 955.38 | 948.45
x1 = 0.5649 | 982.5 | 977.82 | 973.35 | 965.5 | 958.65
x1 = 0.6126 | 994.28 | 989.52 | 985.02 | 977.16 | 970.4
x1 = 0.6539 | 1004.15 | 999.34 | 994.8 | 986.96 | 980.27
x1 = 0.6898 | 1012.51 | 1007.64 | 1003.08 | 995.25 | 988.63
x1 = 0.7353 | 1022.74 | 1017.81 | 1013.21 | 1005.4 | 998.88
x1 = 0.7962 | 1035.87 | 1030.87 | 1026.23 | 1018.44 | 1012.05
x1 = 0.8367 | 1044.36 | 1039.31 | 1034.64 | 1026.87 | 1020.56
x1 = 0.8823 | 1053.64 | 1048.53 | 1043.84 | 1036.07 | 1029.88
x1 = 0.9248 | 1062.23 | 1057.07 | 1052.35 | 1044.62 | 1038.5
x1 = 0.9844 | 1073.74 | 1068.51 | 1063.75 | 1056.05 | 1050.07
